Tests used:
[1] = Inhibition of fMLP-stimulated phospholipase D in human HL60 cells; assay type: cell-based; details: hl-60
[2] = Inhibition of PMA-stimulated phospholipase D in human HL60 cells; assay type: cell-based; details: hl-60

| IC50 [1] [µM] | IC50 [2] [µM] | Compound |
| --- | --- | --- |
| 24 | 2 | C[C@H]1O[C@@H](O[C@H]2[C@H](O[C@H]3CO[C@@H](O[C@H]4CC[C@]5(C)[C@H]6CC[C@]78OC[C@@]9(CCC(C)(C)C[C@H]97)[C@H](O)C[C@@]8(C)[C@]6(C)CC[C@H]5C4(C)C)[C@H](O[C@@H]4O[C@H](CO)[C@@H](O)[C@H](O)[C@H]4O)[C@H]3O)O[C@H](CO)[C@@H](O)[C@@H]2O)[C@@H](O)[C@@H](O)[C@@H]1O |
| 8 | 3 | CC1(C)CC[C@]23CO[C@@]4(CC[C@@H]5[C@@]6(C)CC[C@H](O[C@@H]7OC[C@H](O[C@@H]8O[C@H](CO)[C@@H](O)[C@H](O)[C@H]8O[C@@H]8OC[C@@H](O)[C@H](O)[C@H]8O)[C@H](O)[C@H]7O[C@@H]7O[C@H](CO)[C@@H](O)[C@H](O)[C@H]7O)C(C)(C)[C@@H]6CC[C@@]5(C)[C@]4(C)C[C@H]2O)[C@@H]3C1 [LYSIKOKIANOSIDE 1] |
